Measurements taken from paper PMC9570838, “JND4135, a New Type II TRK Inhibitor, Overcomes TRK xDFG and Other Mutation Resistance In Vitro and In Vivo” (Molecules, 2022).
Like-named read-outs stand apart in the source and are kept apart here.

Legend:
BaF3 ETV6-TRKC = assay: BaF3 cell proliferation, CCK-8 assay; details: Mus musculus, BaF3, 72 h, read-out: IC50 (nM ± SD) WT ETV6-TRKC
Experimental: (§1) Murine BaF3 cells were purchased from JRCB cell bank. The BaF3 cell lines, which stably express natively-fused TRKA/B/C or various point mutants, were self-established by following previously described procedures. Briefly, NTRK genes were totally synthesized and cloned into pCDNA3.1(+) vectors (Invitrogen, Carlsbad, CA, USA). […] Stable strains were established by selection of cells 2 weeks post-transfection with 800 μg/mL G418 (Merck, Whitehouse Station, NJ) and further selection after the withdrawal of interleukin-3 (IL-3, R&D) for 2 weeks. All of BaF3 stable cell lines were verified by DNA sequencing, protein expression and anti-proliferation activity against positive drugs. […] All cells were grown at 37 °C in a humidified 5% CO2 atmosphere.
(§2) Cells were placed in 96-well plates (5000~8000/well) in complete medium. […] IC50 values were calculated by concentration-response curve fitting using GraphPad Prism 5.0 software. Each IC50 value is expressed as mean ± SD.

BaF3 CD74-TRKA = assay: BaF3 cell proliferation, CCK-8 assay; details: Mus musculus, BaF3, 72 h, read-out: IC50 (nM ± SD) WT CD74-TRKA
Experimental: as §1, §2

BaF3 QKI-TRKB = assay: BaF3 cell proliferation, CCK-8 assay; details: Mus musculus, BaF3, 72 h, read-out: IC50 (nM ± SD) WT QKI-TRKB
Experimental: as §1, §2

Parental BaF3 (+IL3) = assay: BaF3 cell proliferation, CCK-8 assay; details: Mus musculus, BaF3, 72 h, read-out: IC50 (nM ± SD) Parental BaF3 (+IL3)
Experimental: as §1, §2

BaF3 ETV6-TRKC-G696C = assay: BaF3 cell proliferation, CCK-8 assay; details: Mus musculus, BaF3, 72 h, read-out: IC50 (nM ± SD) xDFG ETV6-TRKC-G696C
Experimental: as §1, §2

BaF3 CD74-TRKA-F589L = assay: BaF3 cell proliferation, CCK-8 assay; details: Mus musculus, BaF3, 72 h, read-out: IC50 (nM ± SD) Gatekeeper CD74-TRKA-F589L
Experimental: as §1, §2

BaF3 ETV6-TRKB-G639R = assay: BaF3 cell proliferation, CCK-8 assay; details: Mus musculus, BaF3, 72 h, read-out: IC50 (nM ± SD) Solvent Front ETV6-TRKB-G639R
Experimental: as §1, §2

BaF3 MPRIP-TRKA = assay: BaF3 cell proliferation, CCK-8 assay; details: read-out: IC50 (nM ± SD) WT MPRIP-TRKA
Experimental: as §1, §2

BaF3 ETV6-TRKC-G623R = assay: BaF3 cell proliferation, CCK-8 assay; details: Mus musculus, BaF3, 72 h, read-out: IC50 (nM ± SD) Solvent Front ETV6-TRKC-G623R
Experimental: as §1, §2

BaF3 EML4-TRKC = assay: BaF3 cell proliferation, CCK-8 assay; details: Mus musculus, BaF3, 72 h, read-out: IC50 (nM ± SD) WT EML4-TRKC
Experimental: as §1, §2

BaF3 ETV6-TRKB-F633L = assay: BaF3 cell proliferation, CCK-8 assay; details: Mus musculus, BaF3, 72 h, read-out: IC50 (nM ± SD) Gatekeeper ETV6-TRKB-F633L
Experimental: as §1, §2

BaF3 ETV6-TRKC-F617L = assay: BaF3 cell proliferation, CCK-8 assay; details: Mus musculus, BaF3, 72 h, read-out: IC50 (nM ± SD) Gatekeeper ETV6-TRKC-F617L
Experimental: as §1, §2

BaF3 ETV6-TRKB-G709C = assay: BaF3 cell proliferation, CCK-8 assay; details: Mus musculus, BaF3, 72 h, read-out: IC50 (nM ± SD) xDFG ETV6-TRKB-G709C
Experimental: as §1, §2

BaF3 CD74-TRKA-G667C = assay: BaF3 cell proliferation, CCK-8 assay; details: Mus musculus, BaF3, 72 h, read-out: IC50 (nM ± SD) xDFG CD74-TRKA-G667C
Experimental: as §1, §2

BaF3 ETV6-TRKB = assay: BaF3 cell proliferation, CCK-8 assay; details: Mus musculus, BaF3, 72 h, read-out: IC50 (nM ± SD) WT ETV6-TRKB
Experimental: as §1, §2

[1] = tested on: BaF3 cells with gatekeeper mutations (TRKA^F589L, TRKB^F663L, TRKC^F617L); assay: BaF3 cell proliferation, summary over gatekeeper lines; details: Mus musculus, BaF3, read-out: IC50 in cells with gatekeeper mutations
Experimental: as §1, §2

BaF3 CD74-TRKA-G595R = assay: BaF3 cell proliferation, CCK-8 assay; details: Mus musculus, BaF3, 72 h, read-out: IC50 (nM ± SD) Solvent Front CD74-TRKA-G595R
Experimental: as §1, §2

[2] = tested on: TRKs-xDGF mutants TRKA-G667C, TRKB-G709C and TRKC-G696C in stable BaF3 models; assay: Western blot of xDFG mutant TRK signal pathway (Figure S2); format: cell-based, Murine; details: even at 200 nM, 6 h
Experimental: Cells were treated with various concentrations of each tested compound for a designated time. Then cells were lysed using 1 × SDS sample lysis buffer (CST recommended) with protease and phosphatase inhibitors. […] The films were blocked with 5% fat-free milk in TBS solution containing 0.5% Tween-20 for 4 h at room temperature, then incubated with the corresponding primary antibody (1:1000–1:200) overnight at 4 °C. After washing with TBST, HRP-conjugated secondary antibody was incubated for 2 h. The protein signals were visualized by ECL Western Blotting Detection Kit (Thermo Scientific, Waltham, MA, USA), and detected with Amersham Imager 600 system (GE, Boston, MA, USA).

[3] = tested on: BaF3-CD74-TRKA-G667C cells; assay: Apoptosis by flow cytometry (Annexin V / 7-AAD); format: cell-based, Murine; details: even at a concentration of 50 nM
Experimental: For analysis of the cell cycle, cells were harvested and washed twice with PBS after treatment for 24 h with indicated drugs or DMSO. […] The cells were then analyzed on a Guava easyCyte flow cytometer (Merck, Whitehouse Station, NJ, USA). For analysis of cell apoptosis, cells were harvested and washed twice with ice-cold PBS after treatment for 48 h with indicated drugs or DMSO. […] Finally, 400 μL of a 1 × BD binding buffer solution was replenished. The cells were then analyzed on a Guava easyCyte flow cytometer (Merck, Whitehouse Station, NJ, USA).

[4] = tested on: BaF3 cells with solvent front mutations (TRKA^G595R, TRKB^G639R, TRKC^G623R); assay: BaF3 cell proliferation, summary over solvent front lines; details: Mus musculus, BaF3, read-out: IC50 range in cells with solvent front mutations
Experimental: as §1, §2

TRKA^G667C mutant = assay: Multi-target kinase inhibitors in BaF3 cell proliferation assays (Table S3); format: cell-based, Murine
[5] = tested on: wild-type TRKA/B/C or solvent-front mutations; assay: as above; format: cell-based, Murine

| SMILES | IC50 (BaF3 ETV6-TRKC) | IC50 (BaF3 CD74-TRKA) | IC50 (BaF3 QKI-TRKB) | IC50 (BaF3 ETV6-TRKC-G696C) | IC50 (BaF3 CD74-TRKA-F589L) | IC50 (BaF3 ETV6-TRKB-G639R) | IC50 (BaF3 MPRIP-TRKA; Mus musculus, BaF3, 72 h) | IC50 (BaF3 ETV6-TRKC-G623R) | IC50 (BaF3 EML4-TRKC) | IC50 (BaF3 ETV6-TRKB-F633L) | IC50 (BaF3 ETV6-TRKC-F617L) | IC50 (BaF3 ETV6-TRKB-G709C) | IC50 (BaF3 CD74-TRKA-G667C) | IC50 (BaF3 ETV6-TRKB) | IC50 (BaF3 CD74-TRKA-G595R) | IC50 (Parental BaF3 (+IL3)) | inhibition of the activation of TRKs-xDGF mutants [2] | effect on cell cycle or apoptosis [3] | activity against TRKA^G667C mutant (TRKA^G667C mutant) | activity against wild-type TRKA/B/C or solvent-front mutations [5] | other results |
| --- | --- | --- | --- | --- | --- | --- | --- | --- | --- | --- | --- | --- | --- | --- | --- | --- | --- | --- | --- | --- | --- |
| CN1CCN(c2ccc(C(=O)Nc3n[nH]c4ccc(Cc5cc(F)cc(F)c5)cc34)c(NC3CCOCC3)c2)CC1 [Entrectinib] | 7.8 ± 4.2 nM | 4.4 ± 1 nM | 4.8 ± 1.6 nM | 124 ± 60.4 nM | 2.1 ± 0.3 nM | 529 ± 130 nM | 1.6 ± 0.4 nM | 617 ± 69.8 nM | 5.2 ± 1.6 nM | 13 ± 3.6 nM | 4.6 ± 2.8 nM | 285 ± 92.4 nM | 33.2 ± 3.2 nM | 8 ± 3.1 nM | – | 2340 ± 202 nM | – | – | – | – | – |
| O=C(Nc1cnn2ccc(N3CCC[C@@H]3c3cc(F)ccc3F)nc12)N1CC[C@H](O)C1 [Larotrectinib] | 11.2 ± 2.8 nM | 8 ± 0.8 nM | 11.4 ± 4.2 nM | 769 ± 325 nM | 423 ± 92.6 nM | 1900 ± 778 nM | 4.8 ± 1.2 nM | 1270 ± 165 nM | 21.7 ± 6.9 nM | 1400 ± 214 nM | 513 ± 156 nM | 1630 ± 821 nM | 313 ± 48.5 nM | 24 ± 4.2 nM | 1110 ± 251 nM | > 10000 nM | limited inhibition | little effect | – | – | IC50 [1]: > 423 nM |
| COc1cc2nccc(Oc3ccc(NC(=O)C4(C(=O)Nc5ccc(F)cc5)CC4)cc3)c2cc1OC [cabozantinib] | – | – | – | – | – | – | – | – | – | – | – | – | – | – | – | – | – | – | good activity | weak activity | – |
| Cc1ccc(C(=O)Nc2ccc(CN3CCN(C)CC3)c(C(F)(F)F)c2)cc1C#Cc1cnc2cccnn12 [ponatinib] | – | – | – | – | – | – | – | – | – | – | – | – | – | – | – | – | – | – | good activity | weak activity | – |

Now from value to molecule, other results behind:

| IC50 (BaF3 ETV6-TRKC) | IC50 (BaF3 CD74-TRKA) | IC50 (BaF3 QKI-TRKB) | IC50 (BaF3 ETV6-TRKC-G696C) | IC50 (BaF3 CD74-TRKA-F589L) | IC50 (BaF3 ETV6-TRKB-G639R) | IC50 (BaF3 MPRIP-TRKA; Mus musculus, BaF3, 72 h) | IC50 (BaF3 ETV6-TRKC-G623R) | IC50 (BaF3 EML4-TRKC) | IC50 (BaF3 ETV6-TRKB-F633L) | IC50 (BaF3 ETV6-TRKC-F617L) | IC50 (BaF3 ETV6-TRKB-G709C) | IC50 (BaF3 CD74-TRKA-G667C) | IC50 (BaF3 ETV6-TRKB) | IC50 (BaF3 CD74-TRKA-G595R) | SMILES | IC50 (Parental BaF3 (+IL3)) | inhibition of the activation of TRKs-xDGF mutants [2] | effect on cell cycle or apoptosis [3] | activity against TRKA^G667C mutant (TRKA^G667C mutant) | activity against wild-type TRKA/B/C or solvent-front mutations [5] | other results |
| --- | --- | --- | --- | --- | --- | --- | --- | --- | --- | --- | --- | --- | --- | --- | --- | --- | --- | --- | --- | --- | --- |
| 2.1 ± 0.9 nM | – | 0.8 ± 0.7 nM | 42.9 ± 33.6 nM | – | – | – | 14.6 ± 4.7 nM | 2.7 ± 1.6 nM | 4.9 ± 2.2 nM | 2.1 ± 1.1 nM | 89.7 ± 38.8 nM | – | 2.3 ± 0.5 nM | – | C[C@H]1CNC(=O)c2cnn3ccc(nc23)N[C@H](C)c2cc(F)ccc2O1 [Repotrectinib] | 906 ± 69 nM | – | – | – | – | IC50 (BaF3 MPRIP-TRKA; CCK-8, 72 h): 1.1 ± 0.2 nM |
| 1.7 ± 1.1 nM | 2.5 ± 0.2 nM | 1.5 ± 0.4 nM | 98.4 ± 55 nM | 17.3 ± 2.2 nM | 11.4 ± 2.2 nM | 1.1 ± 0.4 nM | 9.6 ± 1.2 nM | 2.1 ± 0.2 nM | 55.8 ± 10.8 nM | 20.8 ± 7.9 nM | 168 ± 73 nM | 66.3 ± 13 nM | 4.9 ± 1.4 nM | 13.6 ± 3.3 nM | C[C@@H]1CCc2ncc(F)cc2[C@H]2CCCN2c2ccn3ncc(c3n2)C(=O)N1 [Selitrectinib] | > 10000 nM | limited inhibition | little effect | – | – | IC50 [4]: 9.4 to 33.7 nM |
